The source of these data is patent KR20130087877A, “피부미백, 항산화 및 ppar 활성을 갖는 신규 화합물 및 이의 의학적 용도” (부산대학교 산학협력단, priority 2012, dated 2013).

Assay [1] concerns mushroom-derived tyrosinase (버섯 유래 티로시나아제). Nature of the assay: Tyrosinase inhibition (dopachrome formation from L-tyrosine). It is filed as biochemical. The following applies: 1 mM L-tyrosine, pH 6.5, 25℃, 30 min, 492 nm; compared with positive control kojic acid; Figure 2.
Assay [2] concerns ROS generated in vascular endothelial cells (혈관내피세포(YPEN-1)). Briefly: In vitro ROS scavenging activity, DCFDA assay in YPEN-1 vascular endothelial cells. The conditions noted are these: YPEN-1 cells, SIN-1 50 μM pretreatment 1 h, compared with positive control Trolox, Figure 1. Format: cell-based, rat.
The next assay addresses T1, PPARα (Homo sapiens, UniProt Q07869).
T1 sequence (Q07869 239-466 limits assumed): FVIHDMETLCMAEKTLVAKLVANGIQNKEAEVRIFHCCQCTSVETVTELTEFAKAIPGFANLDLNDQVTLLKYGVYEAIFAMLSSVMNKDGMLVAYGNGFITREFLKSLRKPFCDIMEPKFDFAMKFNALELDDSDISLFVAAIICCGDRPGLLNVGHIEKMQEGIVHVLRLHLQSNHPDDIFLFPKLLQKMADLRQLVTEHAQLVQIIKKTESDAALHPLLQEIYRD
Briefly: PPAR analysis, PPARα (Fluormone Pan-PPAR Green competition, competitive activation rate). The conditions noted are these: final sample concentration 100 μM; compared with positive control fenofibrate; Figure 3.

Assay [3] deals with PPARα and PPARγ (PPARα 및 PPARγ). Nature of the assay: PPAR analysis, PPARα and PPARγ taken together. It is filed as binding. The conditions noted are these: final sample concentration 100 μM.
In another assay the target is T2, PPARγ (Homo sapiens, UniProt P37231).
T2 sequence (P37231 238-503 limits assumed): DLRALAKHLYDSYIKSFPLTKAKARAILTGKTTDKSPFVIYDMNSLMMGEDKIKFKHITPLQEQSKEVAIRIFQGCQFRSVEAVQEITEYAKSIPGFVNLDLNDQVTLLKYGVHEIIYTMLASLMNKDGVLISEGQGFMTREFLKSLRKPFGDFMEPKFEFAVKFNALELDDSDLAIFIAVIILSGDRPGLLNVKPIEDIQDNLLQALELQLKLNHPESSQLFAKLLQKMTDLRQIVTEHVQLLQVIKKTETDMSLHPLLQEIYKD
Briefly: PPAR analysis, PPARγ (Fluormone Pan-PPAR Green competition, competitive activation rate). The following applies: final sample concentration 100 μM; compared with positive control rosiglitazone; Figure 4. It is filed as binding.

As for `NC(=O)N/N=C/c1ccc(O)cc1` [화합물 1, (E)-2-(4-Hydroxybenzylidene)hydrazinecarboxamide], the tyrosinase inhibitory activity result in assay [1] is on record as “양성대조군인 코지산(Kojic Acid)과 유사한 티로시네이즈 억제 활성”. As to `NC(=O)N/N=C/c1ccc(O)c(O)c1` [화합물 2, (E)-2-(3,4-Dihydroxybenzylidene)hydrazinecarboxamide], in assay [2], the ROS scavenging effect entry is reported as “양성대조군인 트롤록스(Trolox)만큼 소거하는 효과가 큰”. As to `NC(=O)N/N=C/c1ccccc1O` [화합물 10, (E)-2-(2-Hydroxybenzylidene)hydrazinecarboxamide], the “PPARα activation (competitive activation rate), in words” value (from here on “PPARα activation”) at PPARα is on record as “양성대조군인 페노피브레이트보다 매우 뛰어난 PPARα 활성화제”. `CC(=O)N/C(=C\c1ccc(O)c(O)c1)C(=O)O` [화합물 14, (Z)-2-Acetamido-3-(3,4-dihydroxyphenyl)acrylic acid]: the ROS scavenging effect entry in assay [2] is “양성대조군인 트롤록스(Trolox)만큼 소거하는 효과가 큰”. With `CC(=O)N/C(=C\c1ccc(O)cc1O)C(=O)O` [화합물 15, (Z)-2-Acetamido-3-(2,4-dihydroxyphenyl)acrylic acid], in assay [3], the “simultaneous activation of PPARα and PPARγ” value is “PPARα 및 PPARγ를 동시에 활성화할 수 있는 활성화제”. Moreover, at PPARα, the “PPARα activation” value is “양성대조군인 페노피브레이트보다 매우 뛰어난 PPARα 활성화제”. Moreover, at PPARγ, the “PPARγ activation (competitive activation rate), in words” value was “양성대조군인 로지글리타존보다 뛰어난 PPARγ 활성화제”. On to `COc1cc(/C=C(\NC(C)=O)C(=O)O)ccc1O` [화합물 16, (Z)-2-Acetamido-3-(4-hydroxy-3-methoxyphenyl)acrylic acid], for which the ROS scavenging effect entry in assay [2] is on record as “양성대조군인 트롤록스(Trolox)만큼 소거하는 효과가 큰”. For the compound `CCOc1cc(/C=C(\NC(C)=O)C(=O)O)ccc1O` [화합물 17, (Z)-2-Acetamido-3-(3-ethoxy-4-hydroxyphenyl)acrylic acid], in assay [2], the ROS scavenging effect result was “양성대조군인 트롤록스(Trolox)만큼 소거하는 효과가 큰”. With `CC(=O)N/C(=C\c1ccccc1O)C(=O)O` [화합물 23, (Z)-2-Acetamido-3-(2-hydroxyphenyl)acrylic acid], in assay [3], the “simultaneous activation of PPARα and PPARγ” value is listed as “PPARα 및 PPARγ를 동시에 활성화할 수 있는 활성화제”. Also, the “PPARα activation” value on PPARα is “양성대조군인 페노피브레이트보다 매우 뛰어난 PPARα 활성화제”. For the same compound, the “PPARγ activation (competitive activation rate), in words” value at PPARγ is on record as “양성대조군인 로지글리타존보다 뛰어난 PPARγ 활성화제”. As for `COc1cc(/C=C(\NC(C)=O)C(=O)O)cc(OC)c1O` [화합물 25, (Z)-2-Acetamido-3-(4-hydroxy-3,5-dimethoxyphenyl)acrylic acid], the ROS scavenging effect entry in assay [2] was “양성대조군인 트롤록스(Trolox)만큼 소거하는 효과가 큰”.
